Assay: pH screen stability of prednisolone acetate oral suspension (HPLC)
Assay type: physicochemical
Conditions: pH range of 5.0 to 6.2
Procedure: NaOH was added to the portions to give various pH values (Batch A-E) and packaged in 4 ounce amber PETG bottles. The samples were left at the environmentally stressed conditions of 40° centigrade or 50° centigrade for one month. HPLC methods were used to measure the percent of prednisolone acetate retained in the bottle.

- Stability as a function of pH: more stable at the lower pH values
SMILES: CC(=O)OCC(=O)[C@@]1(O)CC[C@H]2[C@@H]3CCC4=CC(=O)C=C[C@]4(C)[C@H]3[C@@H](O)C[C@@]21C [Prednisolone acetate, prednisolone acetate]
